Calls of active or inactive are those of the source. No cut-off for these calls is given here.
Key:
Plasmodium falciparum [1] = test: Antiplasmodial activity against chloroquine-sensitive Plasmodium falciparum 3D7A assessed as death of all detectable parasites at 4 days dosage of 0.05 uM using Hema 3 staining by microscopic analysis; type: functional, organism-based
[2] = Toxicity in human mononuclear leukocytes assessed as decrease in cell health at 5 to 500 uM after 5 days by microscopic analysis; type: cell-based; conditions: 120 h
Plasmodium falciparum [3] = test: Antiplasmodial activity against chloroquine-sensitive Plasmodium falciparum 3D7A assessed as death of all detectable parasites at two days dosage of 0.5 to 500 uM using Hema 3 staining by microscopic analysis; type: functional, organism-based
Plasmodium falciparum [4] = test: Antiplasmodial activity against chloroquine-sensitive Plasmodium falciparum 3D7A assessed as death of all detectable parasites at 4 days dosage of 0.5 to 500 uM using Hema 3 staining by microscopic analysis; type: functional, organism-based
Plasmodium falciparum [5] = test: Antiplasmodial activity against chloroquine-sensitive Plasmodium falciparum 3D7A assessed as death of all detectable parasites at two days dosage of 0.05 uM using Hema 3 staining by microscopic analysis; type: functional, organism-based
Plasmodium falciparum [6] = test: Antiplasmodial activity against chloroquine-sensitive Plasmodium falciparum 3D7A assessed as death of all detectable parasites at two days dosage of 50 to 500 uM using Hema 3 staining by microscopic analysis; type: functional, organism-based
Plasmodium falciparum [7] = test: Antiplasmodial activity against chloroquine-sensitive Plasmodium falciparum 3D7A assessed as parasitaemia level at 4 days dosage of 5 uM measured on day 9 using Hema 3 staining by microscopic analysis; type: functional
Plasmodium falciparum [8] = test: Antiplasmodial activity against chloroquine-sensitive Plasmodium falciparum 3D7A assessed as death of all detectable parasites at 4 days dosage of 50 to 500 uM using Hema 3 staining by microscopic analysis; type: functional, organism-based
Plasmodium falciparum [9] = test: Antiplasmodial activity against chloroquine-resistant Plasmodium falciparum K1 after 48 hrs using Hema 3 staining by microscopic analysis; type: functional, organism-based; conditions: K1, 48 h
Plasmodium falciparum [10] = test: Antiplasmodial activity against chloroquine-sensitive Plasmodium falciparum 3D7 after 48 hrs using Hema 3 staining by microscopic analysis; type: functional, organism-based; conditions: 3D7, 48 h
Plasmodium falciparum [11] = test: Antiplasmodial activity against chloroquine-sensitive Plasmodium falciparum 3D7A assessed as parasitaemia level at 4 days dosage of 5 uM using Hema 3 staining by microscopic analysis; type: functional
Plasmodium falciparum [12] = test: Antiplasmodial activity against chloroquine-sensitive Plasmodium falciparum 3D7A assessed as parasitaemia level at two days dosage of 5 uM measured on day 9 using Hema 3 staining by microscopic analysis; type: functional
Plasmodium falciparum [13] = test: Antiplasmodial activity against chloroquine-sensitive Plasmodium falciparum 3D7A assessed as parasitaemia level at two days dosage of 5 uM measured on day 2 using Hema 3 staining by microscopic analysis; type: functional
Plasmodium falciparum [14] = test: Antiplasmodial activity against chloroquine-sensitive Plasmodium falciparum 3D7A assessed as undetectable parasitaemia level at 4 days dosage of 5 uM measured on day 3 using Hema 3 staining by microscopic analysis; type: functional, organism-based
Plasmodium falciparum [15] = test: Antiplasmodial activity against chloroquine-sensitive Plasmodium falciparum 3D7A assessed as assessed as parasitaemia level at 4 days dosage of 500 uM using Hema 3 staining by microscopic analysis; type: functional
Plasmodium falciparum [16] = test: Antiplasmodial activity against chloroquine-sensitive Plasmodium falciparum 3D7A assessed as assessed as parasitaemia level at two days dosage of 500 uM using Hema 3 staining by microscopic analysis; type: functional

| Compound | Activity [2] | Activity (Plasmodium falciparum [6]) | Activity (Plasmodium falciparum [8]) | IC50 (Plasmodium falciparum [9]) | IC50 (Plasmodium falciparum [10]) | other results |
| --- | --- | --- | --- | --- | --- | --- |
| CCN(CC)CCCC(C)Nc1ccnc2cc(Cl)ccc12 (stereo not given) [CHLOROQUINE] | Toxic |  |  |  |  | Activity (Plasmodium falciparum [1]): inactive; Activity (Plasmodium falciparum [3]): Active; Activity (Plasmodium falciparum [4]): Active; Activity (Plasmodium falciparum [5]): inactive |
| Clc1ccc2c(Nc3cccc(C4=NCCO4)c3)ccnc2c1 | Toxic | Active | Active | 895 nM | 91 nM | Activity (Plasmodium falciparum [7]): 5%; Activity (Plasmodium falciparum [11]): 0% |
| CC1(C)COC(c2cccc(Nc3ccnc4cc(Cl)ccc34)c2)=N1 | Toxic | Active | Active | 711 nM | 83 nM |  |
| O=C1C(O)=C([C@H]2CC[C@H](c3ccc(Cl)cc3)CC2)C(=O)c2ccccc21 [ATOVAQUONE] |  |  |  | 17.7 nM |  |  |
| Clc1ccc2c(Nc3ccc(C4=NCCO4)cc3)ccnc2c1 | Toxic | Active | Active | 846 nM | 192 nM | Activity (Plasmodium falciparum [12]): 5%; Activity (Plasmodium falciparum [13]): 0.25%; Activity (Plasmodium falciparum [14]): Active |
| CC1(C)COC(c2ccc(Nc3ccnc4cc(Cl)ccc34)cc2)=N1 |  |  |  | > 1000 nM | 308 nM | Activity (Plasmodium falciparum [15]): 0%; Activity (Plasmodium falciparum [16]): 0% |

From ChEMBL document CHEMBL1806493, “Synthesis and biological activities of 4-N-(anilinyl-n-[oxazolyl])-7-chloroquinolines (n=3' or 4') against Plasmodium falciparum in in vitro models” (Bioorg Med Chem Lett, 2011)
